Laboratory results as given in US20110077230A1, “COPPER ORGANOCOMPLEXES, USE THEREOF AS ANTITUMOR MEANS AND FOR PROTECTING HEALTHY TISSUE FROM IONIZING RADIATION” (CHARITE - UNIVERSITATSMEDIZIN BERLIN, priority 2008, published 2011).

Legend:
[1] = test system: BJAB cells (lymphoma cell line); assay: Induction of apoptosis (DNA fragmentation, propidium iodide, FACS) in BJAB cells; assay type: cell-based, human; details: 0.1 mmol of complex A, 72 hours
Experimental: BJAB cells (lymphoma cell line) at a concentration of 1×10^5/ml were treated with increasing concentrations of complex A dissolved in DMSO and incubated for 72 hours at 37° C. and 5% CO2. Following propidium iodide staining, the DNA fragments were detected using flow cytometry (FACS analysis). KO (untreated cell suspension) and DMSO were carried along in an equivalent treatment.

[2] = test system: Ehrlich ascites adenocarcinoma; assay: Ehrlich ascites adenocarcinoma in mice; assay type: in vivo, white mice
Experimental: The tumor was implanted intraabdominally in white mice of no particular race.
Group I received complex A orally as a suspension in olive oil at a dosage of 10 mg/kg 3, 4, 5, 6, 7, 8, 9 and 10 days after tumor implantation.
Group II received the same treatment, but using sarcolysine instead of complex A.
Group III received no treatment.
The animals were sacrificed and examined on the 11th day after tumor implantation.

neutrophils = assay: Antioxidant properties: ROS formation in neutrophils; assay type: cell-based, male mice of the NMRI line; details: triggered by PMA and fMLF, depending on the dosage
Excerpt: The complexes A and C show a pronounced effect as antioxidant in an environment having an excess of reactive oxygen species (ROS). Thus, ROS formation in neutrophils obtained from male mice of the NMRI line was triggered by two activators: phorbol 12-myristate 13-acetate (PMA) and N-formyl-methionyl-leucylphenylalanine (fMLF).

EAC cells = assay: Cytosolic calcium (chlortetracycline fluorescence) in EAC cells; assay type: cell-based, mice; details: depending on the dose
Experimental: (§1) The Ehrlich ascites carcinoma (EAC) was obtained from white male mice of the strain MNR1 and the thymocytes from the thymus of rats of the Wistar line. Vitality of the cells was tested by vital staining using trypan blue and experiments and determined to be no less than 95% in all experiments. The NADH state in the EAC cells was assessed with reference to their fluorescence intensity. Measurement of the intracellular calcium concentration was performed according to the standard methodology of fluorescence using chlortetracycline. The membrane potential was measured using the fluorescent dye No. 1104. NADH is a source of electrons in the oxidative phosphorylation process. […] These effects are directed to inhibiting the NAD-dependent dehydrogenase. As a result, the respiratory chain in the tumor cells is inhibited.
(§2) The concentration of intracellular calcium is a trigger for a number of intracellular processes (FIG. 17c, 17d).

[3] = test system: human mammary gland tumor cells; assay: In vitro effect on human mammary gland tumor cells (trypan blue, photography); assay type: cell-based
Experimental: From a patient with mammary carcinoma already showing signs of decay, postoperational material was collected and the tumor cells were separated therefrom. A suspension of these tumor cells was added with trypan blue dye and complex A. During the course of the test, three cells situated closely to each other (A, B and C) were documented by photography (FIGS. 22a, 22b and 22c). After incubating for 18 minutes, wrinkling of the membrane of cell A and invagination of the membrane of cell B can be recognized. After 28 minutes of incubation, cell fragments become stained with trypan blue, a sign that apoptosis has begun. After 43 minutes of incubation, membrane components and the contents thereof detach from the cells.

[4] = Solubility and stability of the complexes
[5] = test system: primary lymphoblasts from ALL patients; assay: Ex vivo induction of apoptosis in primary lymphoblasts; assay type: cell-based, human; details: concentration in LC50 range of NALM-6, 60 hours, cells resistant to daunorubicin and doxorubicin
Experimental: Thereafter, the cells were incubated for 60 hours at 37° C. and 5% CO2, subsequently stained with propidium iodide and quantified using flow cytometry in an FACS.

BJAB cells = assay: Change in mitochondrial membrane potential (JC-1, flow cytometry) in BJAB cells; assay type: cell-based, human; details: 48 hours, concentration-dependent
Experimental: Following treatment of the BJAB cells with different concentrations of complex A, carrying along a zero control and a solvent control, the cells were incubated for 48 hours at a temperature of 37° C. and 5% CO2. […] A concentration-dependent change of the mitochondrial membrane potential induced by complex A is found in more than 30% of the cells.

[6] = test system: Ehrlich ascites carcinoma (EAC) cells; assay: NADH state (fluorescence) in EAC cells; assay type: cell-based, mice
Experimental: as §1

[7] = test system: human mammary gland tumor cells, T2N1M0 stage; assay: In vitro effect on human mammary gland tumor cells, Experiment 1; assay type: cell-based
Experimental: Tumor cells were collected from the surgical material of female patients suffering from mammary carcinoma at two different stages. The tumor tissue was added with sterile 0.25% trypsin solution and centrifuged repeatedly in RPMI-1640 nutrient medium for 15 minutes at 1500 revolutions per minute. The amount of resulting cells was counted and the suspension of tumor cells divided into five equal groups. The RPMI-1640 nutrient medium was added with 12% fetal calf serum. The cells were incubated for 48 h at 37° C. in a 5% CO2 stream.
The preparations were dissolved in 4% DMSO and physiological saline and acidified with HCl.
Two experiments were performed using cancer cells derived from tumors of different stages. To differentiate the various stages of cancer, the TNM classification is used internationally which takes into account the tumor size (T), lymph node affection (N=nodal status) and the extent of metastasis (M).
(T2: tumor up to 5 cm; N1; metastases in 3 lymph nodes; M0: no distant metastases). A suspension including 40 million cells was added with 50 μl of each preparation.
The 5 groups with cancer cells received the following:
After subjecting the preparations to flow incubation for 60 minutes, trypan blue stained cells were produced, and dead cells and apoptosis could be determined; dead cells and apoptotic cells were determined in specific units of time and morphological findings.

[8] = test system: Human lymphoma cells (BJAB); assay: In vivo inhibition of tumor growth, BJAB implanted in SCID mice; details: 10 mg/kg peroral, suspended in olive oil
Experimental: Human lymphoma cells (BJAB) were implanted in six SCID mice. After a tumor with a diameter of 5 mm had formed, the mice were subjected to peroral treatment with complex A at a dose of 10 mg/kg, suspended in olive oil. The control group consisted of 10 animals treated with olive oil only.
* denotes the significance (p≦0.05) in the Mann-Whitney U-test.

lymphoma cells (BJAB) = assay: Combined administration of complex A and cytarabine, DNA fragmentation; assay type: cell-based, human; details: 48 hours
Experimental: Incubation was performed for 48 hours at 37° C. and 5% CO2, carrying along zero and solvent controls. DNA fragmentation is determined by flow cytometry after staining the cells with propidium iodide.

thymocytes = assay: Cytosolic calcium (chlortetracycline fluorescence) in thymocytes; assay type: cell-based, rats of the Wistar line; details: depending on the dose
Experimental: as §1, §2

With “Copper-sarcolysine hydrochloride complex [complex A]” the “induction of apoptosis, % of the cells” value [1] was 43.5%, the “% inhibition” value ([2]; 10 mg/kg orally) was 75.3% and the “Average MI of bone marrow” value ([2]; 10 mg/kg orally) was 0.95 ± 0.47 ‰. The “Average MI of tumor cells” value ([2]; 10 mg/kg orally) was 1.0 ± 0.7 ‰, the “Average number of tumor cells” value ([2]; 10 mg/kg orally in olive oil, days 3 to 10, day 11) was 40′ 10^6 and the “formation of ROS in neutrophils” value (neutrophils) was “reduce or completely suppress”. The “concentration of cytosolic calcium” value (EAC cells) was “increase”, the “incubation time to wrinkling / invagination of the cell membrane” value [3] was 18 min and the “incubation time until cell fragments stain with trypan blue (apoptosis has begun)” value [3] was 28 min. The “incubation time until membrane components and contents detach from the cells” value [3] was 43 min, the “solubility in DMSO” value ([4]; dimethyl sulfoxide (DMSO)) was “dissolves” and the “solubility in organic solvents” value ([4]; most / many organic solvents) was “insoluble”. The “stability at room temperature” value ([4]; room temperature, even when exposed to oxygen) was “stable”, the solubility in water ([4]; water) was “insoluble” and the “induction of apoptosis in lymphoblasts” value [5] was “about 26%”. For the same substance, the “cells with change of the mitochondrial membrane potential” value (BJAB cells) was “more than 30%”, the response to oligomycin [6] was “reduce the response to oligomycin” and the “Living cells, %” value ([7]; Experiment 1, T2N1M0) was 24.0 ± 1.90%. The “Dead cells, %” value ([7]; Experiment 1, T2N1M0, 40 million cells, 50 μl of preparation) was 76.0 ± 2.06%, the “inhibition of tumor growth” value [8] was “significant inhibition of tumor growth” and the “synergy effect with cytarabine, induction of apoptosis” value (lymphoma cells (BJAB)) was 129%. The “concentration of cytosolic calcium” value (thymocytes) was “increase”.
